From patent US20240124503A1, “HETEROAROMATIC PHOSPHONIUM SALTS AND THEIR USE TREATING CANCER” (FLORATEK PHARMA S.A., priority 2021, published 2024) come the findings set out here.

Assay [1] has as its system HCC1806. Briefly: Cell viability assay, HCC1806. The format is cell-based. As to conditions: Homo sapiens; breast carcinoma cell line HCC1806. The procedure:
(§1) Antitumor activity of the compounds and doxorubicin as a positive control was assessed by using the CellTiter-Blue Cell Viability Assay (Promega, #G8082) or CellTiter-Glow® Luminescent Cell Viability assay (Promega #G7572) according to the manufacturer's instructions. The compounds were tested at 5 or 6 concentrations in half-log increments (highest concentration 30 μM or 100 μM) in duplicate or triplicate well conditions.
(§2) Tumor cells were grown at 37° C. in a humidified atmosphere with 5% CO2 in RPMI 1640 or DMEM medium, supplemented with 10% (v/v) fetal calf serum and 50 μg/ml gentamicin for up to 20 passages, and were passaged once or twice weekly. Cells were harvested using TrypLE or PBS buffer containing 1 mM EDTA, and the percentage of viable cells was determined using a CASY Model TI cell counter (OMNI Life Science). Cells were harvested from exponential phase cultures, counted and plated in 96 well flat-bottom microtiter plates at a cell density depending on the cell line's growth rate (4,000-20,000 cells/well depending on the cell line's growth rate, up to 60,000 for hematological cancer cell lines) in RPMI 1640 or DMEM medium supplemented with 10% (v/v) fetal calf serum and 50 μg/ml gentamicin (140 μl/well). […] Viability of cells was quantified by the CellTiter-Blue® cell viability assay (Promega G8081) or CellTiter-Glow® Luminescent Cell Viability assay (Promega #G7572). […]

Assay [2] relates to T47D. Put plainly: Cell viability assay, T47D. The format is cell-based. The following applies: Homo sapiens; breast carcinoma cell line T47D. The protocol: as §1, §2
Assay [3] concerns NCI-H460. Briefly: Cell viability assay, NCI-H460. The format is cell-based. As to conditions: Homo sapiens; lung carcinoma cell line NCI-H460. The protocol:
as §1, §2

Assay [4] has as its target T1, KIT(D816V) (Homo sapiens, UniProt P10721, D816V).
T1 construct: purchased Eurofins (KINOMEscan); host or cells: E. coli BL21-derived host (T7 phage) or HEK-293
Put plainly: KINOMEscan competition binding, KIT(D816V). The protocol:
(§3) Selected compounds were screened for kinase inhibition using the KINOMEscan™ assay (Eurofins) which is based on a competition binding assay that quantitatively measures the ability of a compound to compete with an immobilized, active-site directed ligand. The assay was performed by combining three components: DNA-tagged kinase; immobilized ligand; and the test compound. The ability of the test compound to compete with the immobilized ligand was measured via quantitative PCR of the DNA tag.
(§4) Kinase-tagged T7 phage strains were prepared in an E. coli host derived from the BL21 strain. E. coli were grown to log-phase and infected with T7 phage and incubated with shaking at 32° C. until lysis. The lysates were centrifuged and filtered to remove cell debris. The remaining kinases were produced in HEK-293 cells and subsequently tagged with DNA for qPCR detection. Streptavidin-coated magnetic beads were treated with biotinylated small molecule ligands for 30 minutes at room temperature to generate affinity resins for kinase assays. […] Kds were determined using an 11-point 3-fold compound dilution series with three DMSO control points. […] The kinase concentration in the eluates was measured by qPCR. […]
(§5) Binding constants (Kds) were calculated with a standard dose-response curve using the Hill equation: Response=Background+[Signal−Background/1+(Kd^Hill Slope/Dose^Hill Slope)] […]

For assay [5], the target named is T2, RIOK2 (Homo sapiens, UniProt Q9BVS4).
T2 construct: purchased Eurofins (KINOMEscan); host or cells: E. coli BL21-derived host (T7 phage) or HEK-293
Briefly: KINOMEscan competition binding, RIOK2. The procedure: as §3, §4, §5

Assay [6] deals with lung carcinoma cell. Put plainly: Cell viability, lung carcinoma cells (panel statement). The following applies: summary of Table 13; read-out: IC50, lung carcinoma cell growth. The format is cell-based. The protocol:
as §1, §2

T2 sequence (Q9BVS4 whole entry): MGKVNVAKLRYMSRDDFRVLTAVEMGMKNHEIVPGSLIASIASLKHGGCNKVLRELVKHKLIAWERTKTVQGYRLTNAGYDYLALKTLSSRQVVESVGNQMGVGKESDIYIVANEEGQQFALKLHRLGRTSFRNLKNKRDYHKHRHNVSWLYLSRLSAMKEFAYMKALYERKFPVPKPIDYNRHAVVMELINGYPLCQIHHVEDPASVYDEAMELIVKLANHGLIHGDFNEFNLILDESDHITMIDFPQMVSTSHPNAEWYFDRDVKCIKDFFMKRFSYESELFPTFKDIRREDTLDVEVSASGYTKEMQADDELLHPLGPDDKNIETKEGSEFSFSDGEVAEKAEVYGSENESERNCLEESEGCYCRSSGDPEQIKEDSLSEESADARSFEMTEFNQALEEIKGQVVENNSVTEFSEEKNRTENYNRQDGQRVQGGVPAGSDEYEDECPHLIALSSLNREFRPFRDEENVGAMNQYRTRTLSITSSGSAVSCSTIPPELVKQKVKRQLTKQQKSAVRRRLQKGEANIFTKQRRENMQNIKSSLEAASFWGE
T1 sequence (P10721 26-976 D816V): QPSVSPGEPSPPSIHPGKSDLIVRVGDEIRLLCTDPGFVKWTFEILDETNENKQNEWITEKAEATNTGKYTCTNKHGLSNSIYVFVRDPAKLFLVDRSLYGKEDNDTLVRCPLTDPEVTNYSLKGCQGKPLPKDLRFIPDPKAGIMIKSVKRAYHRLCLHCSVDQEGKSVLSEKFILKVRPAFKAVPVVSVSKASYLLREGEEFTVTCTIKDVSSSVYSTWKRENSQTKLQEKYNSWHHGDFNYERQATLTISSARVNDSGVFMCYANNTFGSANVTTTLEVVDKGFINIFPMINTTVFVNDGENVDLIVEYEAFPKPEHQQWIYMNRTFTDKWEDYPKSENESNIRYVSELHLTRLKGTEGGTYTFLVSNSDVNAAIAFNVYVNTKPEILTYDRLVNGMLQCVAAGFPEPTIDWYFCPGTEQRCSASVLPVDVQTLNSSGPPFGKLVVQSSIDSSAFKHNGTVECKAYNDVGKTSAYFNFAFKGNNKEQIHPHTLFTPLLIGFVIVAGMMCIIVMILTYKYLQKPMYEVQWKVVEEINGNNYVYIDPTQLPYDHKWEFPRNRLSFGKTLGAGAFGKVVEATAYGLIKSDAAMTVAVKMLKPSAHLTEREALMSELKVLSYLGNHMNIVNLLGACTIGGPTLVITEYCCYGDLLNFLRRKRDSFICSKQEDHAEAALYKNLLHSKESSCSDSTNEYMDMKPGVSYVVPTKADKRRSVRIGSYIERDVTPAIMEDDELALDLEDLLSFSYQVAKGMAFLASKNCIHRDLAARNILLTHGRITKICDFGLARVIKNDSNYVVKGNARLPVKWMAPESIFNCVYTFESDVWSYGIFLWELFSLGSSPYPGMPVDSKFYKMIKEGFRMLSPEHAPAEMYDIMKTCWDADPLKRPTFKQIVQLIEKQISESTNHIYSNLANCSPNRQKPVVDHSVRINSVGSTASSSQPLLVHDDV

By IC50 is commonly meant the concentration that inhibits the measured activity by half. As a reminder, the Kd is the concentration at which binding is half-saturated. Turning to `COc1c(O)ccc2c(=O)c(O)c(-c3ccc(CCCC[P+](c4ccccc4)(c4ccccc4)c4ccccc4)cc3)oc12` [SND190, (4-(4-(3,7-Dihydroxy-8-methoxy-4-oxo-4H1-chromen-2-yl)phenyl)butyl)triphenylphosphonium bromide], the 50% inhibitory concentration (IC50) in assay [1] was 2800 nM; in assay [2] it was 1300 nM; in assay [3], 8630 nM; in assay [6], less than 20000 nM. The figures for the Kd in assay [4] and in assay [5] were 930 nM and 710 nM, respectively.
